Data as given in ChEMBL document CHEMBL5325512, “Sub-stoichiometric Modulation of Viral Targets-Potent Antiviral Agents That Exploit Target Vulnerability” (ACS Med Chem Lett, 2023).

Experiments:
[1] = tested on: Human immunodeficiency virus 1; assay: Antiviral activity against HIV 1 harbouring deltaV370 mutant; type: functional, organism-based
[2] = tested on: Human immunodeficiency virus 1; assay: Antiviral activity against HIV 1 harbouring V370A mutant; type: functional, organism-based
[3] = tested on: Human immunodeficiency virus 1; assay: Antiviral activity against wild type HIV 1 in presence of human serum albumin; type: functional, organism-based
[4] = tested on: Human immunodeficiency virus 1; assay: Antiviral activity against wild type HIV 1 NL4-3; type: functional, organism-based; settings: Human immunodeficiency virus 1, NL4-3
[5] = tested on: Human immunodeficiency virus 1; assay: Antiviral activity against HIV1 harbouring T332S/V362I/prR41G mutant; type: functional, organism-based
[6] = tested on: Human immunodeficiency virus 1; assay: Antiviral activity against HIV 1 harbouring V362I/V370 mutant; type: functional, organism-based
[7] = tested on: Human immunodeficiency virus 1; assay: Binding affinity to HIV1 Gag V370A/deltaT371 mutant assessed as dissociation half life
[8] = tested on: Human immunodeficiency virus 1; assay: Binding affinity to HIV1 Gag deltaV370A mutant assessed as dissociation half life
[9] = Selectivity ratio of EC50 for antiviral activity against HIV1 harbouring deltaV370A mutant to EC50 for antiviral activity against wild type HIV1; type: functional, Human immunodeficiency virus 1
[10] = tested on: Gag-Pol polyprotein (Human immunodeficiency virus type 1 group M subtype B (isolate HXB2)(HIV-1)), P04585 [A364V]; assay: Binding affinity to HIV1 Gag A364V mutant assessed as dissociation half life; settings: Human immunodeficiency virus 1
[11] = Selectivity ratio of EC50 for antiviral activity against HIV1 harbouring T332S/V362I/prR41G mutant to EC50 for antiviral activity wild type HIV1; type: functional, Human immunodeficiency virus 1
[12] = biological target: Human immunodeficiency virus type 1 Gag protein (Human immunodeficiency virus 1) (UniProt Q77YG1); assay: Binding affinity to HIV1 wild type Gag assessed as dissociation half life
[13] = tested on: Human immunodeficiency virus 1; assay: Antiviral activity against HIV 1 harbouring A364V mutant; type: functional, organism-based
[14] = tested on: Human immunodeficiency virus 1; assay: Binding affinity to HIV1 Gag V362I/V370A mutant assessed as dissociation half life
[15] = Selectivity ratio of EC50 for antiviral activity against HIV1 harbouring V370A mutant to EC50 for antiviral activity against wild type HIV1; type: functional, Human immunodeficiency virus 1
[16] = tested on: Human immunodeficiency virus 1; assay: Antiviral activity against wild type HIV 1; type: functional, organism-based
[17] = tested on: Human immunodeficiency virus 1; assay: Antiviral activity against HIV 1 harbouring R361K/V362I/L363M mutant; type: functional, organism-based
[18] = Selectivity ratio of EC50 for antiviral activity against HIV1 harbouring R361K/V362I/L363M mutant to EC50 for antiviral activity wild type HIV1; type: functional, Human immunodeficiency virus 1
[19] = Selectivity ratio of EC50 for antiviral activity against HIV1 harbouring A364V mutant to EC50 for antiviral activity wild type HIV1; type: functional, Human immunodeficiency virus 1
[20] = tested on: Human immunodeficiency virus 1; assay: Antiviral activity against HIV 1 harbouring A362T/V362I/V370 mutant; type: functional, organism-based
[21] = Selectivity ratio of EC50 for antiviral activity against HIV1 harbouring A362T/V362I/V370A mutant to EC50 for antiviral activity wild type HIV1; type: functional, Human immunodeficiency virus 1
[22] = Selectivity ratio of EC50 for antiviral activity against HIV1 harbouring V362I/V370A mutant to EC50 for antiviral activity against wild type HIV1; type: functional, Human immunodeficiency virus 1
[23] = tested on: Human immunodeficiency virus 1; assay: Antiviral activity against HIV1 infected in human assessed as reduction in Plasma viremia by measuring HIV1 RNA at 200 mg/kg after 10 days; type: functional; settings: time 10 day
[24] = tested on: Gag-Pol polyprotein (Human immunodeficiency virus type 1 group M subtype B (isolate HXB2)(HIV-1)), P04585 [V362I]; assay: Binding affinity to HIV1 Gag V362I mutant assessed as dissociation half life; settings: Human immunodeficiency virus 1
[25] = tested on: Human immunodeficiency virus 1; assay: Antiviral activity against HIV1 infected in human assessed as reduction in Plasma viremia by measuring HIV1 RNA at 40 mg/kg after 7 days; type: functional; settings: time 7 day
[26] = tested on: Human immunodeficiency virus 1; assay: Antiviral activity against HIV1 infected in human assessed as reduction in Plasma viremia by measuring HIV1 RNA at 10 mg/kg after 10 days; type: functional; settings: time 10 day
[27] = tested on: Human immunodeficiency virus 1; assay: Antiviral activity against HIV1 infected in human assessed as reduction in Plasma viremia by measuring HIV1 RNA at 140 mg/kg after 7 days; type: functional; settings: time 7 day
[28] = tested on: Human immunodeficiency virus 1; assay: Antiviral activity against HIV1 infected in human assessed as reduction in Plasma viremia by measuring HIV1 RNA at 80 mg/kg after 7 days; type: functional; settings: time 7 day
[29] = tested on: Gag-Pol polyprotein (Human immunodeficiency virus type 1 group M subtype B (isolate HXB2)(HIV-1)), P04585 [V370A]; assay: Binding affinity to HIV1 Gag V370A mutant assessed as dissociation half life; settings: Human immunodeficiency virus 1

SMILES	EC50 [1]	EC50 [2]	EC50 [3]	EC50 [4]	EC50 [5]	EC50 [6]	T1/2 [7]	T1/2 [8]	Ratio EC50 [9]	T1/2 [10]	Ratio EC50 [11]	T1/2 [12]	EC50 [13]	T1/2 [14]	Ratio EC50 [15]	EC50 [16]	EC50 [17]	Ratio EC50 [18]	Ratio EC50 [19]	EC50 [20]	further results
C=C(C)[C@@H]1CC[C@]2(NCCN3CCS(=O)(=O)CC3)CC[C@]3(C)[C@H](CC[C@@H]4[C@@]5(C)CC=C(C6=CCC(C(=O)O)CC6)C(C)(C)[C@@H]5CC[C@]43C)[C@@H]12 (stereo partly specified)	2 nM	0.7 nM	9 nM	0.6 nM	–	–	–	–	–	–	–	–	–	–	–	–	–	–	–	–	–
C=C(C)[C@@H]1CC[C@]2(NCCN3CCS(=O)(=O)CC3)CC[C@]3(C)[C@H](CC[C@@H]4[C@@]5(C)CC=C(C6=CC[C@@H](C(=O)O)CC6)C(C)(C)[C@@H]5CC[C@]43C)[C@@H]12	3 nM	–	5 nM	3 nM	19 nM	15 nM	–	–	–	–	–	–	–	–	–	–	–	–	–	–	–
C=C(C)[C@@H]1CC[C@]2(NCCN3CCS(=O)(=O)CC3)CC[C@]3(C)[C@H](CC[C@@H]4[C@@]5(C)CC=C(c6ccc(C(=O)O)cc6)C(C)(C)[C@@H]5CC[C@]43C)[C@@H]12 [BMS-955176]	6 nM	6 nM	–	–	704 nM	> 3000 nM	0.8 h	0.767 h	1.2	< 1 min	141	0.85 h	> 3000 nM	0.583 h	1.2	5 nM	552 nM	110	>600	> 3000 nM	Ratio EC50 [21]: >600; Ratio EC50 [22]: >600
C=C(C)[C@@H]1CC[C@]2(NCCN3CCS(=O)(=O)CC3)CC[C@]3(C)[C@H](CC[C@@H]4[C@@]5(C)CC=C(C6=CC[C@@](CF)(C(=O)O)CC6)C(C)(C)[C@@H]5CC[C@]43C)[C@@H]12 [FIPRAVIRIMAT]	3 nM	2 nM	–	–	7 nM	3 nM	7.65 h	5.25 h	1	< 1 min	2.3	6.02 h	274 nM	3.78 h	0.7	3 nM	3 nM	1	91	26 nM	Activity [23]: -2; T1/2 [24]: 4.48 h; Activity [25]: -1.2; Activity [26]: -0.4; Activity [27]: -1.5; Activity [28]: -1; T1/2 [29]: 7.23 h; Ratio EC50 [21]: 8.7; Ratio EC50 [22]: 1
